Results reported in patent publication US8227510B2, “Combine use of pterostilbene and quercetin for the production of cancer treatment medicaments” (Universitat de Valencia, priority 2004, dated 2012).
Marks after values point to notes of the source that are not given here.

What was measured:
B16M-F10 cells = experiment: Levels of free polyphenols in the incubation medium of B16M-F10 cultures; assay type: in vitro ADME; settings: throughout the culture time
B16M-F10 = experiment: Survival of mice carrying B16M-F10 metastases; assay type: in vivo; settings: for Survival of the carrier: B16M-F10, 20 mg/kg i.v. daily, none 13 ± 2
Description: (§1) Hepatic metastases were induced by i.v. inoculations (portal vein), in anesthetized mice (Nembutal, 50 mg/kg i.p.), of 4×10^5 viable B16M-F10 cells suspended in 0.2 ml of DMEM. The mice were sacrificed by cervical dislocation 10 days after inoculation. The livers were fixed by immersion for 24 hours at 22° C. in 10% formaldehyde in PBS (pH 7.4), and were subsequently embedded in paraffin. The density of metastases (average number of foci/100 mm^3 of liver detected in fifteen sections of 10×10 mm^2 per liver) and the volume of metastases (average percentage of liver volume occupied by metastases) were determined as described previously (22).
This methodology makes it possible for the effect of PTER and QUER to be studied in vivo. For this purpose, mice were inoculated with B16M-F10 control cells or B16M-F10/Tet-Bcl-2 which overexpressed Bcl-2. Both subgroups of cells were cultivated beforehand in the absence or in the presence of t-PTER and QUER. B16M-F10 cells were cultivated for 72 hours. t-RESV (12 μM), t-PTER (40 μM), and QUER (20 μM) were added at 6, 30 and 54 hours of culture time, and were present in each case for just 60 minutes. Then they were removed from the culture flasks by washing (3 times with PBS) and the medium was renewed. The levels of Bcl-2 in the B16M-F10 control cells and cells treated with Tet-Bcl-2 were 24±5 and 105±14 units/mg of protein, respectively (n=5 in each case, P<0.01). The number of adhering cells shown in the table was calculated at 60 minutes postinjection (no significant differences were found when the measurements were effected at 30, 120, 180, 240 or 360 minutes postinjection, data not shown). The number of intact cells was calculated at 6 hours postinjection. […] The growth of metastases in the liver was evaluated as stated in the corresponding section of the description, and in this case the mice were treated daily (×10 days) with t-PTER and/or QUER (20 mg/kg of body weight) administered i.v. (the data are mean values±SD corresponding to 25 mice per group). […]

B16M-F10/Tet-Bcl-2 = experiment: Growth of hepatic metastases of B16M-F10/Tet-Bcl-2 in mice; assay type: in vivo; settings: 20 mg/kg i.v. daily x10 days; for Volume of metastases: none 25 ± 6; for Density of metastases: none 29 ± 5
Description: as §1
This methodology makes it possible for the effect of PTER and QUER to be studied in vivo. For this purpose, mice were inoculated with B16M-F10 control cells or B16M-F10/Tet-Bcl-2 which overexpressed Bcl-2. Both subgroups of cells were cultivated beforehand in the absence or in the presence of t-PTER and QUER. B16M-F10 cells were cultivated for 72 hours. t-RESV (12 μM), t-PTER (40 μM), and QUER (20 μM) were added at 6, 30 and 54 hours of culture time, and were present in each case for just 60 minutes. Then they were removed from the culture flasks by washing (3 times with PBS) and the medium was renewed. The levels of Bcl-2 in the B16M-F10 control cells and cells treated with Tet-Bcl-2 were 24±5 and 105±14 units/mg of protein, respectively (n=5 in each case, P<0.01). The number of adhering cells shown in the table was calculated at 60 minutes postinjection (no significant differences were found when the measurements were effected at 30, 120, 180, 240 or 360 minutes postinjection, data not shown). The number of intact cells was calculated at 6 hours postinjection. The experimental microscopy data in vivo are mean values±SD corresponding to 4-5 different experiments. The growth of metastases in the liver was evaluated as stated in the corresponding section of the description, and in this case the mice were treated daily (×10 days) with t-PTER and/or QUER (20 mg/kg of body weight) administered i.v. (the data are mean values±SD corresponding to 25 mice per group). A similar method and equal number of mice per group were used for evaluating the survival of the carrier animals. The test of significance relates, in all the groups, to comparison between cases with PTER and/or QUER and cases without additions (*P<0.05 and **P<0.01), and to comparison between the B16M-F10/Tet-Bcl-2 cells with the B16M-F10 control cells (^+P<0.05, ^++P<0.01). […] This is the first time that the combined administration in vivo of natural polyphenols has induced inhibition of metastatic growth of a highly malignant tumor and an increase in the survival of the carrier.

[1] = rabbits, i.v., cited from earlier work
VCAM-1 = settings: cited from earlier work
B16M-F10 cells / HSE [2] = settings: as described previously (ref. 14); cited from earlier work
B16M-F10 cells / HSE [3] = settings: as described previously (ref. 14); cited from earlier work; remark: listed apart in the source

| SMILES | total levels of free polyphenols in the incubation medium (metabolism by cancer cells) (B16M-F10 cells) | Survival of the carrier (B16M-F10) [days] | effect on survival of the carrier host (B16M-F10; B16M-F10 control cells, daily i.v. administration) | Volume of metastases (B16M-F10/Tet-Bcl-2) | Density of metastases (B16M-F10/Tet-Bcl-2) | highest concentration in plasma ([1]; 5 minutes after administration) [µM] | time in which plasma concentration falls to ~1 μM [1] [min] | concentration at which expression of VCAM-1 is inhibited (VCAM-1) [µM] | effect on HSE-induced cytotoxicity on the metastatic cells (B16M-F10 cells / HSE [2]) | inhibition of adhesion of tumor cells to the endothelium (B16M-F10 cells / HSE [3]) [%] |
| --- | --- | --- | --- | --- | --- | --- | --- | --- | --- | --- |
| O=c1c(O)c(-c2ccc(O)c(O)c2)oc2cc(O)cc(O)c12 [QUER, quercetin] | remained unchanged | 15 ± 1 | neither of these compounds significantly increased the survival | 24 ± 5^++ percentage of liver volume | 26 ± 516^++ number of foci/100 mm^3 | ~43 | 60 |  |  |  |
| COc1cc(/C=C/c2ccc(O)cc2)cc(OC)c1 [PTER, pterostilbene] | remained unchanged | 15 ± 2 |  | 15 ± 3** percentage of liver volume | 15 ± 3** number of foci/100 mm^3 |  |  |  |  |  |
| Oc1ccc(C=Cc2cc(O)cc(O)c2)cc1 [RESV, resveratrol, reference compound] |  |  |  |  |  |  |  | 1 | without increasing the HSE-induced cytotoxicity | ~47 |
